# Where “and” joins values, the source holds several entries; their conditions need not be identical. Identical values can stand only once.
# What was measured:
# LIM1215 (Gastric) = test: MTT in vitro cytotoxicity, 72 hour incubation; assay type: cell-based; details: MTT assay, LIM1215 cells
# Procedure: (§1) The in vitro cytotoxicity of a selection of compounds was determined in a panel of cell lines using the standard MTT assay for a 72 hour incubation period (Table 1).
# (§2) Tumor cell lines were maintained in RPMI1640 medium supplemented with 10% heat-inactivated fetal bovine serum, 2 mM L-glutamine and 1 mM sodium pyruvate. 1800 cells per well were seeded in a volume of 180 μl in a 96-well flat bottom polystyrene plate. The cells were allowed to adhere overnight at 37° C. in a CO2 incubator. Ligands were initially formulated in DMSO, and stocks stored at −80° C. They were then further formulated at lox concentration in RPMI1640 medium. 20 μl of diluted samples were added into each treatment well. On each plate, blank wells with no cells, and untreated wells containing cells, were included. Plates were then cultured at 37° C. in a CO2 incubator for 72 hrs. Cytotoxicity was evaluated using a tetrazolium salt-based assay, the MTT assay. After 72 hours, the supernatant was removed from each well and 200 μl of a sterile filtered 500 μg/ml MTT solution in water added to each well. The plates were then incubated at 37° C. in a CO2 incubator for 4 hrs. The supernatant was then removed and the formazan crystals formed solubilized by adding 150 μl of DMSO to each well. The plate was then read on a plate reader at 540 nm, and percentage cell survival calculated as follows: ((mean absorbance treated wells at concentration×−mean absorbance blank wells)÷(mean absorbance untreated wells at concentration×−mean absorbance blank wells))×100. Data were plotted as concentration in nM vs. % cell survival in Microsoft Excel, and IC50 values (concentration where cell survival is reduced by a half) were determined from the graph.
# SW48 (Gastric) = test: MTT in vitro cytotoxicity, 72 hour incubation; assay type: cell-based; details: Homo sapiens, MTT assay, SW48 cells
# Procedure: as §1, §2
# SW620 (Gastric) = test: MTT in vitro cytotoxicity, 72 hour incubation; assay type: cell-based; details: Homo sapiens, SW-620, MTT assay, SW620 cells
# Procedure: as §1, §2
# [1] = Hydrophobicity investigation of free payloads by UPLC (hydrophobicity model); assay type: physicochemical; details: single runs 1-3 (triplicate), 0.1% TFA water/acetonitrile gradient
# Procedure: Both mobile phases were filtered through 0.22 μm filters and degassed by sonication under argon. Caffeine (Merck, UPLC grade) was employed a standard. Blank solvent samples (i.e., DMSO) were used during sample runs to confirm lack of carryover between injections and to monitor column performance.
# UPLC-MS analysis was performed on a Waters Acquity H-Class Ultra-Performance Liquid Chromatography (UPLC) System equipped with an Acquity UPLC BEH, […] 50×2.10 mm (Waters, UK) column and a photodiode array detector […], using Waters MassLynx software. The gradient system used for LC analysis consisted of 0.1% trifluoroacetic acid (TFA) in water as Solvent A, and 0.1% trifluoroacetic acid (TFA) in acetonitrile as Solvent B. TFA was purchased from Merck (UK), and diluted to the required concentration with UPLC grade water and acetonitrile for Solvent A and Solvent B, respectively. TFA was added to ensure acidic conditions throughout the analysis. A flow rate of 0.4 mL/min was used, and the detection wavelength was 254 nm. Mass spectrometry data were collected using a Waters SQ Detector 2 coupled to a Waters Acquity H Class UPLC and a Photo Diode Array Detector (ACQ-PDA). The Waters SQ Detector 2 parameters were set to: Capillary (kV), 3.00; Cone (V), 30; De-solvation Temperature (° C.), 600; Cone flow rate (L/h), 50; De-solvation flow rate (L/h), 600.
# Gradient method used: from 95% A/5% B to 20% B over 5 min. Then from 20% B to 60% B over 35 min, followed by from 60% B to 85% B over 10 min. It was further changed from 85% B to 90% B over 5 min and kept for a further 5 min. Finally, from 90% B to 95% B over 2.5 min, and then to 20% B over 2.5 min. 10 μL was split via a zero-dead volume T-piece which passed into the mass spectrometer.
# Compounds were provided in powder form and were dissolved in DMSO to achieve 5 mM stock solution. This solution was then diluted to 500 μM with 50% acetonitrile/50% water.
# A number of commercially available ADC payloads and internal reference compounds were also incorporated into the analysis, and their structures are presented in Table 3.
# Jurkat (Leukaemia) = test: MTT in vitro cytotoxicity, 72 hour incubation; assay type: cell-based; details: Homo sapiens, MTT assay, Jurkat cells
# Procedure: as §1, §2
# JVM2 (Lymphoma) = test: MTT in vitro cytotoxicity, 72 hour incubation; assay type: cell-based; details: Homo sapiens, JVM-2, MTT assay, JVM2 cells
# Procedure: as §1, §2
# RAJI (Lymphoma) = test: MTT in vitro cytotoxicity, 72 hour incubation; assay type: cell-based; details: Homo sapiens, MTT assay, RAJI cells
# Procedure: as §1, §2
Compound,IC50 (LIM1215 (Gastric)) [nM],IC50 (SW48 (Gastric)) [nM],IC50 (SW620 (Gastric)) [nM],Retention Time (min) seco form ([1]; seco form),Retention Time (min) spiro form ([1]; spiro form),IC50 (Jurkat (Leukaemia)) [nM],IC50 (JVM2 (Lymphoma)) [nM],IC50 (RAJI (Lymphoma)) [nM]
"CNS(=O)(=O)c1ccc(C2=CCN3C(=O)c4cc(OC)c(OCc5cccc(CC(=O)N6C[C@@H](CCl)c7c6cc(O)c6ccccc76)c5)cc4N=C[C@@H]3C2)cc1 [Compound 31, 4-((S)-3-((3-(2-((S)-1-(Chloromethyl)-5-hydroxy-1,2-dihydro-3H-benzo[e]indol-3-yl)-2-oxoethyl)benzyl)oxy)-2-methoxy-12-oxo-6a,7,10,12-tetrahydrobenzo[e]pyrido[1,2-a][1,4]diazepin-8-yl)-N-methylbenzenesulfonamide]",2.7,1.3,0.35,,,,,
"CNS(=O)(=O)c1ccc(C2=CCN3C(=O)c4cc(OC)c(OCc5cccc(CC(=O)N6C[C@@H](CCl)c7c6cc(O)c6ccccc76)n5)cc4N=C[C@@H]3C2)cc1 [Compound 35, 4-((S)-3-((6-(2-((S)-1-(Chloromethyl)-5-hydroxy-1,2-dihydro-3H-benzo[e]indol-3-yl)-2-oxoethyl)pyridin-2-yl)methoxy)-2-methoxy-12-oxo-6a,7,10,12-tetrahydrobenzo[e]pyrido[1,2-a][1,4]diazepin-8-yl)-N-methylbenzenesulfonamide]",4.38,3.15,2.12,,,,,
"CNS(=O)(=O)c1ccc(C2=CCN3C(=O)c4cc(OC)c(OCCCCCC(=O)N5C[C@@H](CCl)c6c5cc(O)c5ccccc65)cc4N=C[C@@H]3C2)cc1 [Compound 72, 4-((S)-3-((6-((S)-1-(Chloromethyl)-5-hydroxy-1,2-dihydro-3H-benzo[e]indol-3-yl)-6-oxohexyl)oxy)-2-methoxy-12-oxo-6a,7,10,12-tetrahydrobenzo[e]pyrido[1,2-a][1,4]diazepin-8-yl)-N-methylbenzenesulfonamide]",0.32,0.29,0.21,24.02 min and 24.04 min,17.11 min and 17.15 min,0.0015,0.0016,0.0019

# Reference: US20220098191A1 (priority 2019, published 2022)
